{
  "source": "paper PMC11601876",
  "about": "“Manganese-based type I collagen-targeting MRI probe for in vivo imaging of liver fibrosis” (Research Square, 2024)",
  "key": {"[1]": {"details": "rats; in words; cited from earlier work", "source_text": "Whole body PET-CT images recorded 1 and 7 days after [^52Mn]Mn-CBP20 injection are shown in Figure 6A and ex vivo ^52Mn biodistribution data are shown in Figure 6B and 6C and also tabulated in Supplementary Tables 1 and 2. The highest concentration of ^52Mn 1 day after injection is found in the kidneys, consistent with the expected renal elimination of the compound."}, "[2]": {"assay": "Kinetic inertness: Mn2+ dissociation upon Zn2+ challenge", "type": "physicochemical", "details": "0.5 mM Mn2+ (0.167 mM Mn-CBP20), 10 mM Zn(OTf)2, pH 7.4 50 mM Tris/18 mM citrate, 27 °C, monitored by r2 change at 1.4T", "procedure": "Figure 2. In vitro assays for collagen binding and kinetic inertness.\nTo assess kinetic inertness to Mn^2+ release, we evaluated Mn^2+ dissociation kinetics upon challenge of 0.167 mM Mn-CBP20 (0.5 mM Mn^2+) with 10 mM Zn(OTf)2 in the presence of pH 7.4 50 mM Tris/ 18 mM citrate buffer, Figure 2B. The presence of a weak chelator such as citrate is required to maintain homogenous reaction conditions during the course of the measurement, as treatment of Mn-CBP20 with even 1 mol equiv. […] Mn^2+ dissociation was monitored by observing change in r2. Under this set of assay conditions, the r2 value associated with dissociated Mn^2+ (16.3 mM^−1s^−1) is approximately half that of Mn^2+ bound within Mn-CBP20. As positive control, we monitored Mn^2+ dissociation from the kinetically inert complex Mn-CDTA (r2 = 5.9 mM^−1s^−1)."}},
  "data": [
    {"compound": "Mn-DPDP", "values": [
      {"measurement": "52Mn uptake in salivary glands relative to other tissues", "setting": "[1]", "result": "high and persistent ^52Mn uptake in the salivary glands relative to other tissues"}
    ]},
    {"compound": "O=C([O-])CN(CC(=O)[O-])C1CCCCC1N(CC(=O)[O-])CC(=O)[O-].[Mn+2]", "note": "(centres unmarked) [Mn-CDTA]", "values": [
      {"measurement": "half-life (t1/2) of Mn2+ dissociation", "setting": "[2]", "result": 15.5, "unit": "h"}
    ]}
  ]
}
